Measurements taken from patent US6835755B1, “Naphthoquinone derivatives and their use in the treatment and control of tuberculosis” (priority 1999, dated 2004).
In brackets after ≈: the same amount, converted by molar mass.

Test system: resistant strains of Mycobacterium tuberculosis
Experiment: microbe, parasite or virus in culture
Type: cell-based
Details: for ΔGI values of plant extracts: at MIC, mean ± s.d.

Row | SMILES | ΔGI values of plant extracts (2 drug resistant strain (res. to isoniazid and rifampicin)) [mg/mL] | ΔGI values of plant extracts (3 drug resistant strain (res. to streptomycin, isoniazid and ethambutol)) [mg/mL] | MIC (3 drug resistant strain (res. to streptomycin, isoniazid and ethambutol), radiometric method) [µg/mL] | ΔGI values of plant extracts (4 drug resistant strain (res. to streptomycin, isoniazid, rifampicin and ethambutol)) [mg/mL] | MIC (4 drug resistant strain (res. to streptomycin, isoniazid, rifampicin and ethambutol), radiometric method) [µg/mL] | ΔGI values of plant extracts (5 drug resistant strain (res to isoniazid, streptomycin, rifampicin, thiacetazone and cyclocerine)) [mg/mL] | MIC (5 drug resistant strain (res to isoniazid, streptomycin, rifampicin, thiacetazone and cyclocerine), radiometric method) [µg/mL] | ΔGI values of plant extracts (6 drug resistant strain (res. to isoniazid, rifampicin, ethionamide, terizidone, thiacetazone and ofloxacin)) [mg/mL] | MIC (6 drug resistant strain (res. to isoniazid, rifampicin, ethionamide, terizidone, thiacetazone and ofloxacin), radiometric method) [µg/mL] | ΔGI values of plant extracts (7 drug resistant strain (res to isoniazid, streptomycin, ethambutol, kanamycin, rifampicin, and ethionamide)) [mg/mL] | MIC (7 drug resistant strain (res to isoniazid, streptomycin, ethambutol, kanamycin, rifampicin, and ethionamide), radiometric method) [µg/mL] | MIC (Mycobacterium tuberculosis) [µg/mL] | ΔGI values of plant extracts (Two drug (isoniazid and rifampicin) resistant strain CCKO28469V) | MIC (Minimal inhibitory concentration) (Two drug (isoniazid and rifampicin) resistant strain CCKO28469V, radiometric method) [µg/mL]
1 | Cc1cc(O)c2c(c1)C(=O)C(c1c(C)cc3c(c1O)C(=O)C=CC3=O)=CC2=O [diospyrin, 5,5′ dihydroxy 7,7′ binaphthoquinone] | 3.5 | 4 ± 2.12 | 100 (≈ 267 µM) | 5 ± 2.82 | 100 (≈ 267 µM) | 10 ± 1.41 | 100 (≈ 267 µM) | 9 ± 2.82 | 100 (≈ 267 µM) | 13.5 ± 3.2 | 100 (≈ 267 µM) | 100 (≈ 267 µM) |  | 
2 | Cc1cc(O)c2c(c1)C(=O)C=CC2=O [7-methyljuglone, 5-hydroxy-7-methyl-1,4-naphtoquinone] |  |  |  |  |  |  |  |  |  |  |  |  | 0 ± 0 | 50 (≈ 266 µM)
